The values below come from ChEMBL document CHEMBL4425102, “Structure-Based Design of Tetrahydroisoquinoline-7-carboxamides as Selective Discoidin Domain Receptor 1 (DDR1) Inhibitors” (J Med Chem, 2016).

As a reminder, the pIC50 is the negative decadic logarithm of the IC50, by convention in mol/L. As a reminder, the AUC(0-inf) is total exposure, with the tail of the curve extrapolated. Read a high AUC(0-inf) as high exposure. For orientation: bioavailability means the share of a dose that reaches the circulation, judged against a reference dose that is usually intravenous. Read a low bioavailability as poor availability. The Cmax is the peak of the concentration-time curve. The term pKd denotes −log10 of the Kd, conventionally taken in molar units. High values mean a low Kd, low ones a high Kd. By half-life is commonly meant the time needed for the level to fall by half in the phase considered. Low values mean fast loss, high ones slow loss. The Tmax is the time from dosing to the highest level.

pIC50, pKd: −log10 of the molar value. Activity calls are given as the source filed them.

Data set [1] has as its target Tyrosine-protein kinase ABL1 (Homo sapiens, UniProt P00519). The data set is described as follows: Inhibition of human full length recombinant His-tagged ABL1 expressed in baculovirus infected Sf9 insect cells using tyrosine 2 peptide as substrate preincubated for 1 hr measured after 2 hrs in presence of ATP by FRET-based Z'-Lyte assay.
The target of data set [2] is Epithelial discoidin domain-containing receptor 1 (Homo sapiens, UniProt Q08345). The data set is described as follows: biochemical.
Data set [3] is described as follows: AUC (0 to infinity) in ICR mouse at 1 mg/kg, iv measured after 5 mins to 24 hrs by HPLC/MS analysis. The class given is ADME, organism-based. Also on record: dose 1 mg/kg, time infinity, route intravenous. The note with it: in vivo.
Data set [4] can be described thus: Oral bioavailability in ICR mouse at 4 mg/kg measured after 15 mins to 24 hrs by HPLC/MS analysis. The following applies: in vivo. The class given is ADME, organism-based.
A short description of data set [5]: Cmax in Sprague-Dawley rat at 4 mg/kg, iv measured after 0.03 to 24 hrs by HPLC/MS analysis. More on the design: dose 4 mg/kg, route intravenous. Format: ADME, organism-based. The note with it: in vivo.
A further data set concerns the target T1, Ephrin type-A receptor 8 (Homo sapiens, UniProt P29322).
T1 sequence (P29322 whole entry): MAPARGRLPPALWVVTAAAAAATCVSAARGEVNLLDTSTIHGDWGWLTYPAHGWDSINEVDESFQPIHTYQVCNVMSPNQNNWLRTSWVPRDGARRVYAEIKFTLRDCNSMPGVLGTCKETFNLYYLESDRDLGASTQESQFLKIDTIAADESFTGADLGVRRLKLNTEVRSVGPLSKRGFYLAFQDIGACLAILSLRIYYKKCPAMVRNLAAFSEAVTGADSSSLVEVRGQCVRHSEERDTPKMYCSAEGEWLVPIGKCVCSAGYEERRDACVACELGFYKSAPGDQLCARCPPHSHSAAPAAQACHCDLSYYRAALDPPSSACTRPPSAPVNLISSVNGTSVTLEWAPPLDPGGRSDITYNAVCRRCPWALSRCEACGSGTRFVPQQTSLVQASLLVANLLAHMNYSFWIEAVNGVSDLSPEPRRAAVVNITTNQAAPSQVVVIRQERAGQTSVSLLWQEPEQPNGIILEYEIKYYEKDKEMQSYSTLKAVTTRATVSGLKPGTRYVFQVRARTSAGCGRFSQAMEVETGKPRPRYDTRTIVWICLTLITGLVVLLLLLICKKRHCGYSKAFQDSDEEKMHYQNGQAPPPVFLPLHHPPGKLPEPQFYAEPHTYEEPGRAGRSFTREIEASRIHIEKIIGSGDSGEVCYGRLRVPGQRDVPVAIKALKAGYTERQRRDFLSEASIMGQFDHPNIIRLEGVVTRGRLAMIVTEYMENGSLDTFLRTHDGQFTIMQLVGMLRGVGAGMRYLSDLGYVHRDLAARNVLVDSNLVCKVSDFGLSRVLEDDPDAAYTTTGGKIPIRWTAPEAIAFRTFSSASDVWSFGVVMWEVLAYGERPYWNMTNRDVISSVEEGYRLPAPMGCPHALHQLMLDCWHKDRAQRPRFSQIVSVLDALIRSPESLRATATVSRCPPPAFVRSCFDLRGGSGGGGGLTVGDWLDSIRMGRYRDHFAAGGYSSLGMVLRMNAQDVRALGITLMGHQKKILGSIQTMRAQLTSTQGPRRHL
The experiment in a line: Binding affinity to wild type human partial length EPHA8 (608 to 920 residues) expressed in bacterial expression system preincubated for 1 hr measured after 30 mins by qPCR method. On the technique in general: In qPCR the cycle at which signal appears reflects the starting amount.

The subject of data set [6] is Mus musculus. The experiment in a line: Protection against bleomycin-induced lung fibrosis in C57BL/6 mouse assessed as decrease in fibronectin level in lung at 10 to 50 mg/kg administered via oral gavage bid 14 days post bleomycin treatment measured on day 28 by immunoblot analysis. The class given is functional, organism-based. (In general: Immunoblotting shows a protein as a band on a membrane.)

Data set [7] relates to Mus musculus. The experiment in a line: Protection against bleomycin-induced lung fibrosis in C57BL/6 mouse assessed as decrease in alpha-smooth muscle actin level in lung at 10 to 50 mg/kg administered via oral gavage bid 14 days post bleomycin treatment measured on day 28 by immunoblot analysis. Format: functional, organism-based.
The nature of data set [8]: AUC (0 to infinity) in ICR mouse at 4 mg/kg, po measured after 15 mins to 24 hrs by HPLC/MS analysis. The class given is ADME, organism-based. Also on record: dose 4 mg/kg, route oral, time infinity. The note with it: in vivo.
The nature of data set [9]: Half life in Sprague-Dawley rat at 4 mg/kg, iv by HPLC/MS analysis. The class given is ADME, organism-based. The following applies: in vivo.
For data set [10], the target named is T2, Muscle, skeletal receptor tyrosine-protein kinase (Homo sapiens, UniProt O15146).
T2 sequence (O15146 whole entry): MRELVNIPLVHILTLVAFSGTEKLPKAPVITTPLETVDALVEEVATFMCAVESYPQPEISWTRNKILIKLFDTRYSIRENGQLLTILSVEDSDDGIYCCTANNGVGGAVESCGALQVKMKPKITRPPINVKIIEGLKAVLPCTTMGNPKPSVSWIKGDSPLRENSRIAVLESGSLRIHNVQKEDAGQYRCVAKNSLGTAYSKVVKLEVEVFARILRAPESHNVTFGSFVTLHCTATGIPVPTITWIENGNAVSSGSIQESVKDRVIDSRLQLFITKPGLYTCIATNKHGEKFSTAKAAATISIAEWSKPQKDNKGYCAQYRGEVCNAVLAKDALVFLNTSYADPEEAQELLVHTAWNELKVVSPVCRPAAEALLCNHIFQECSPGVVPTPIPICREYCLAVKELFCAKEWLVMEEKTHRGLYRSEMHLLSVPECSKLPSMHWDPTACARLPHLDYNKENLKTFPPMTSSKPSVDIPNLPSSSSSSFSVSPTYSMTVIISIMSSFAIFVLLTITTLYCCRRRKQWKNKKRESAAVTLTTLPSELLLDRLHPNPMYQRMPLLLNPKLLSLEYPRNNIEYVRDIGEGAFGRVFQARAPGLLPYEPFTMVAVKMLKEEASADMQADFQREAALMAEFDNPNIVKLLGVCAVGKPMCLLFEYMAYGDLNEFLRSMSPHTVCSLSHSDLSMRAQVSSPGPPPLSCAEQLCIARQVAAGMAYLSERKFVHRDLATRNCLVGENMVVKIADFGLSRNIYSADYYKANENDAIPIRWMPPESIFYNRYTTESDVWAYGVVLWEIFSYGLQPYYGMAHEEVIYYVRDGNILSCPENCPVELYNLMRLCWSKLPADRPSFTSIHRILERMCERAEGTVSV
The data set is described as follows: Binding affinity to wild type human partial length MUSK (553 to 869 residues) expressed in bacterial expression system preincubated for 1 hr measured after 30 mins by qPCR method.

Data set [11] is described as follows: AUC (0 to infinity) in Sprague-Dawley rat at 4 mg/kg, iv measured after 0.03 to 24 hrs by HPLC/MS analysis. The class given is ADME, organism-based. More on the design: dose 4 mg/kg, time infinity, route intravenous. The note with it: in vivo.
Data set [12] can be described thus: Tmax in Sprague-Dawley rat at 20 mg/kg, po by HPLC/MS analysis. Format: ADME, organism-based. The note with it: in vivo.
In data set [13] the test system is Mus musculus. The experiment in a line: Protection against bleomycin-induced lung fibrosis in C57BL/6 mouse assessed as decrease in hydroxyproline level in lung administered via oral gavage bid 14 days post bleomycin treatment measured on day 28 […]. The class given is functional, organism-based.
Data set [14] can be described thus: Cmax in Sprague-Dawley rat at 20 mg/kg, po measured after 0.03 to 24 hrs by HPLC/MS analysis. The class given is ADME, organism-based. More on the design: dose 20 mg/kg, route oral. The following applies: in vivo.
Data set [15] has as its system Mus musculus. The experiment in a line: Protection against bleomycin-induced lung fibrosis in C57BL/6 mouse assessed as increase in alveolar spaces administered via oral gavage bid 14 days post bleomycin treatment measured on day 28 by Massons trichrome staining. The class given is functional, organism-based.
Data set [16] is described as follows: Cmax in ICR mouse at 4 mg/kg, po measured after 15 mins to 24 hrs by HPLC/MS analysis. The following applies: in vivo. More on the design: dose 4 mg/kg, route oral. Format: ADME, organism-based.
The nature of data set [17]: Oral bioavailability in Sprague-Dawley rat at 20 mg/kg measured after 0.03 to 24 hrs by HPLC/MS analysis. Format: ADME, organism-based. The note with it: in vivo.
Data set [18] is described as follows: Tmax in ICR mouse at 4 mg/kg, po by HPLC/MS analysis. Format: ADME, organism-based. The note with it: in vivo.
A short description of data set [19]: AUC (0 to infinity) in Sprague-Dawley rat at 20 mg/kg, po measured after 0.03 to 24 hrs by HPLC/MS analysis. The class given is ADME, organism-based. More on the design: dose 20 mg/kg, route oral, time infinity. The following applies: in vivo.
The nature of data set [20]: Cmax in ICR mouse at 1 mg/kg, iv measured after 5 mins to 24 hrs by HPLC/MS analysis. The class given is ADME, organism-based. Also on record: dose 1 mg/kg, route intravenous. The note with it: in vivo.

Epithelial discoidin domain-containing receptor 1, sequence (Q08345 whole entry, the tested form may be a part): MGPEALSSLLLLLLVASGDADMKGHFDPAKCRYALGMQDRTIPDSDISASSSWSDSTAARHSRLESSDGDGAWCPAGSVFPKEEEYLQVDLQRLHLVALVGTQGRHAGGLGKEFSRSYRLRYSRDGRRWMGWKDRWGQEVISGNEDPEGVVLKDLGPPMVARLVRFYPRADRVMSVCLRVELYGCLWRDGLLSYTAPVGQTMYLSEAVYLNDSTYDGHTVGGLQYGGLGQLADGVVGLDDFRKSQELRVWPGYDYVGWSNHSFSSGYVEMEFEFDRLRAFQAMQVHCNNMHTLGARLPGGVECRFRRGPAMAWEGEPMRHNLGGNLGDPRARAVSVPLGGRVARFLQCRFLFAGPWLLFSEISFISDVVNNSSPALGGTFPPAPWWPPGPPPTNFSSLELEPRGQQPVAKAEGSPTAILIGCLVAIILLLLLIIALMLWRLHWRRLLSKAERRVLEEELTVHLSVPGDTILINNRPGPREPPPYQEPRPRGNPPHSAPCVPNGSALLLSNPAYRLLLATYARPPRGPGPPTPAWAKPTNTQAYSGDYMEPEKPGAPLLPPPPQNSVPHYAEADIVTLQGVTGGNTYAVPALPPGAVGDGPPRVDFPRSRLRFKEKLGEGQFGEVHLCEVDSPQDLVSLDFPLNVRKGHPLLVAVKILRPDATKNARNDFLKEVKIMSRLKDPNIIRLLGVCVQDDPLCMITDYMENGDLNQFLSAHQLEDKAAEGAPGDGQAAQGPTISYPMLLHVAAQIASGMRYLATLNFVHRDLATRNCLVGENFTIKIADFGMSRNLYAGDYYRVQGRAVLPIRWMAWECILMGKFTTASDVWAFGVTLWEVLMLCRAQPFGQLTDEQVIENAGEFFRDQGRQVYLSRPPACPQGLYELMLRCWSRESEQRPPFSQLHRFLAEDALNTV
Tyrosine-protein kinase ABL1, sequence (P00519 whole entry, the tested form may be a part): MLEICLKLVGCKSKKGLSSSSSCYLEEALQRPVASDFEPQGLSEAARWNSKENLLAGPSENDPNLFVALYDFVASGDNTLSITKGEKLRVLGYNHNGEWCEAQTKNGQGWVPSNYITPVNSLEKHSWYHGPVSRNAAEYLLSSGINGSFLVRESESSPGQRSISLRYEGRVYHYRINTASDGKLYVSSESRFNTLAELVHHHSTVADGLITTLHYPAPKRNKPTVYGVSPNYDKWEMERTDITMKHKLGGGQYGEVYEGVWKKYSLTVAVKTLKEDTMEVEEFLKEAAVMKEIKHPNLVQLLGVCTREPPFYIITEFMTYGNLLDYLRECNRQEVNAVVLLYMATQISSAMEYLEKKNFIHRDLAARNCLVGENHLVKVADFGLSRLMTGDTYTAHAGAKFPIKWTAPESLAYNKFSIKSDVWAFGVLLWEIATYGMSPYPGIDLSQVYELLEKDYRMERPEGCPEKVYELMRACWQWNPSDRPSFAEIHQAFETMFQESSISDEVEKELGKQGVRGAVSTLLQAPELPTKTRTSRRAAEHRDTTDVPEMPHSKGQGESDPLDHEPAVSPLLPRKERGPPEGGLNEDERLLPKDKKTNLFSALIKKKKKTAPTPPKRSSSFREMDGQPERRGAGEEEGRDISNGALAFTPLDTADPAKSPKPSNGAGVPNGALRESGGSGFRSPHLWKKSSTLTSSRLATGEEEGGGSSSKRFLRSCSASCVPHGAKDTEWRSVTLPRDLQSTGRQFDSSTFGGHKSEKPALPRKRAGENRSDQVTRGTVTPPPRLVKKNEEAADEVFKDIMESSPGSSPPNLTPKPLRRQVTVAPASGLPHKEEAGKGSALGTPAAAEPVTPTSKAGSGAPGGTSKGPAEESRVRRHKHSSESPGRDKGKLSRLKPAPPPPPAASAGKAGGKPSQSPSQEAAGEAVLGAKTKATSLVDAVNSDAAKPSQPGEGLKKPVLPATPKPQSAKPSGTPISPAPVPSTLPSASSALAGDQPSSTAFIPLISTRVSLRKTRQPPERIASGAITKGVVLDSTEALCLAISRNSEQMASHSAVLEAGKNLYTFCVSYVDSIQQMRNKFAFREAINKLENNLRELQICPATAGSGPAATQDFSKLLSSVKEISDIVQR

For `Cc1cn(-c2cc(NC(=O)c3ccc4c(c3)CN(c3cncnc3)C[C@H]4C)cc(C(F)(F)F)c2)cn1`, the pIC50 in [1] was less than 5.00.

On to `CC(C)[C@@H]1CN(c2cncnc2)Cc2cc(C(=O)Nc3cc(CN4CCN(C)CC4)cc(C(F)(F)F)c3)ccc21`, for which the results for the pIC50 in data set [1] and in [2] were less than 5.00 and less than 5.52, respectively.

As to `CC(C)[C@H]1CN(c2cncnc2)Cc2cc(C(=O)Nc3cc(CN4CCN(C)CC4)cc(C(F)(F)F)c3)ccc21`, the negative-log IC50 (pIC50) is less than 5.00 in data set [1] and less than 6.00 in [2].

For `Cc1cn(-c2cc(NC(=O)c3ccc4c(c3)CN(c3cncnc3)C[C@@H]4C)cc(C(F)(F)F)c2)cn1`, the AUC(0-inf) in data set [3] was determined as 1210 ng·h/mL; in [8] it was 2550 ng·h/mL; in data set [11], 236 ng·h/mL; in data set [19], 788 ng·h/mL. The figures for the bioavailability in [4] and in data set [17] were 41.6% and 66.8%, respectively. For the same compound, the Cmax turned out to be 473 ng/mL in data set [5], 342 ng/mL in data set [14], 2190 ng/mL in [16] and 2250 ng/mL in [20]. Besides, the pKd on Ephrin type-A receptor 8 was 6.26; in data set [10], 6.28. In addition, the outcome with Mus musculus [6] and in the data set on Mus musculus [7] was Active. The pIC50 in [1] is less than 5.00. The compound further had a half-life in data set [9] of 1.5 h. Moreover, the Tmax in data set [12] came out at 1 h; in data set [18], 0.5 h. Besides, the Activity entry in the data set with Mus musculus [13] and in the data set with Mus musculus [15] was “Dose-dependent effect” throughout.

Turning to `CN1CCN(Cc2cc(NC(=O)c3ccc4c(c3)CN(c3ccccc3)CC4)cc(C(F)(F)F)c2)CC1`, the figures for the pIC50 in data set [1] and in [2] were less than 5.00 and less than 5.52, respectively.
